Experimental data reported in patent EP4737445A1, “NOVEL SATURATED HETEROCYCLE-SUBSTITUTED HETEROARYL-CARBONOHYDRAZONOYL DICYANIDE COMPOUND AND USE THEREOF” (Korea Institute of Science and Technology, priority 2023, dated 2025).

Key:
Type in all cases: in vivo
TauP301L-BiFC Tg mice [1] = experiment: Novel Objective Recognition test in tau transgenic mice; settings: oral 10 mg/kg, 5 times per week, 19 weeks, Vehicle = 0.48
Experimental: (§1) Compounds 6, 16, and 20 were orally administered to 8.2-month-old tau transgenic animal model (TauP301L-BiFC tg mouse) 5 times per week at a concentration of 10 mg/kg for a total of 19 weeks (n=10/group). WT mice of similar age to the vehicle-treated group of TauP301L-BiFC mice were used as a control group. Three types of behavioral experiments (Novel Objective Recognition test, Y-maze test, Balance beam test) were performed to confirm the improvement effects on cognitive function and motor function by drug administration, and these experiments and their results were as follows. • (1) Novel Objective Recognition test: To evaluate the object recognition memory ability of mice, two identical objects (Old-Old) were explored for 10 minutes in a 40 cm × 40 cm box. The next day, one object was replaced with a new object (Old-New) and exploration was performed again for 10 minutes, and then the time showing exploratory behavior toward the existing object and the new object was measured. Mice with normal object recognition ability (Recognition index) spent more time exploring the newly changed object, whereas mice with low object recognition ability could not distinguish the new object. The object recognition ability (Recognition index) values were as follows: (RI, Vehicle= 0.48, n.s., #20= 0.59, p<0.05, #6= 0.66, p<0.0001, #16= 0.58, p<0.05). In TauP301L-BiFC mice, the object recognition function improvement effect by drugs #20, #6, and #16 compared to the vehicle group was confirmed. • (2) Y-maze test: A Y-maze test was performed to evaluate the spatial working memory ability of mice. Whether the mice entered the three arms of the Y-maze by spontaneous alternation behavior for a certain period of time was measured through video recording. An increase in the spontaneous alternation ratio was considered as improved working memory ability. […] The time taken to cross a rod with a height of 50 cm and length of 80 cm and the number of times the feet went outside the rod during crossing were measured. […]

tau = target: T1, tau (Homo sapiens, UniProt P10636, P618L); experiment: Tau phosphorylation immunoblot of RIPA-soluble brain lysates; settings: TauP301L-BiFC mice, oral 10 mg/kg, 19 weeks, vehicle = 100%
T1 construct: BiFC fluorescent-protein fragments (two complementary halves); from tissue; host or cells: brain of TauP301L-BiFC transgenic mice
T1 sequence (P10636 1-441 isoform P10636-8 P301L): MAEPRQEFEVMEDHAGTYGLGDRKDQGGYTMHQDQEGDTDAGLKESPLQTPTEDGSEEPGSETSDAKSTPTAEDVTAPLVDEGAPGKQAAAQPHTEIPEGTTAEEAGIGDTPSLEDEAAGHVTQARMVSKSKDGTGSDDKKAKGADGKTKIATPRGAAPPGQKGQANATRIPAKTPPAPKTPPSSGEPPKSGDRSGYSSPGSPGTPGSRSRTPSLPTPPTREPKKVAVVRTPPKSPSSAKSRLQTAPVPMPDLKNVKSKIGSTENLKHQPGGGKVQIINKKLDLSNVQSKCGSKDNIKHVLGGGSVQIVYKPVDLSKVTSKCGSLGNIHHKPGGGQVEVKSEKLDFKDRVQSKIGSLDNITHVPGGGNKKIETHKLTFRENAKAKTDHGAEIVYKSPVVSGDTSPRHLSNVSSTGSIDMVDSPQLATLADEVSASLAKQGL
Experimental: [2] To verify the tau pathology inhibitory efficacy of the drug confirmed through brain tissue imaging via brain lysate immunoblot, brain lysates were separated and purified, and immunoblot using tau antibody was performed in soluble and insoluble fractions. The brain was weighed, and RIPA lysis buffer containing the corresponding dose of protease and phosphatase inhibitors was added to the brain tissue. The tissue was then disrupted using a homogenizer and incubated at 4°C for 2 hours, and then centrifuged at 13,200 rpm at 4°C for 20 minutes. After centrifugation, the supernatant was collected as a RIPA-soluble fraction and stored at -80°C. To prepare the RIPA-insoluble fraction, the remaining pellet was washed once with RIPA lysis buffer containing 1 M sucrose, and then 2% SDS solution (1 mL per 1 g of tissue) was added and incubated at room temperature for 1 hour. Thereafter, the mixture was centrifuged at 13,200 rpm for 1 minute at room temperature, and the supernatant was collected as a RIPA-insoluble fraction and stored at -80°C.
For tau immunoblot analysis, 20 µg of brain tissue RIPA-soluble sample was separated on a 10% SDS-PAGE gel and transferred to a PVDF membrane, and RIPA-insoluble samples were diluted 10-fold in 2% SDS solution and 20 µL of each sample was loaded on an SDS-PAGE gel. The total tau and phosphorylated tau levels were detected by Tau5, which is an anti-tau antibody, and pS199 and pS396, which are anti-phosphorylated tau antibodies. ImageJ software (NIH) was used to quantify band intensity.

[2] = Pharmacokinetic study in rats (IV and PO, plasma); settings: Sprague-Dawley, rat, SD rats
Experimental: The pharmacokinetics of the compounds prepared according to Examples 1 to 46 were studied using experimental animal models. Specifically, 7- to 8-week-old SD rats (Koatech, Hana Sangsa Co., Ltd.) weighing approximately 250 to 300 g were purchased and maintained in a small animal simple breeding room set at a temperature of 22 ± 2°C, relative humidity of 50 ± 5%, lighting time of 12 hours (lights on at 8 AM and lights off at 8 PM), and illumination of 150 to 300 lux. Throughout the entire test period, feed was provided ad libitum, RO water was provided ad libitum, and fasting was performed for 16 hours before oral administration of the drug. After preparing the drugs under the conditions shown in Table 7 below, the drugs were administered by intravenous injection (IV) or oral administration (PO). Collected blood at 500 µL was collected in tubes containing heparin sodium and centrifuged at 8000 rpm at 2 to 8°C for 6 minutes to obtain plasma from the blood. 20 µL of the obtained plasma was taken, added to 180 µL of acetonitrile containing an internal standard, vortexed, and centrifuged at 15,000 rpm at 4°C for 5 minutes, and the obtained supernatant was analyzed by LC-MS/MS. The HPLC and MS conditions used for analysis are shown in Tables 8 and 9 below, respectively.
Specific PK parameters were calculated using Phoenix WinNonlin 6.4 version (Pharsight, USA) program and a non-compartmental analysis model, and the results are summarized in Table 11 below.

TauP301L-BiFC Tg mice [3] = experiment: Balance beam test in tau transgenic mice; settings: oral 10 mg/kg, 5 times per week, 19 weeks, vehicle = 1.5
Experimental: as §1

TauP301L-BiFC Tg mice [4] = experiment: Y-maze test in tau transgenic mice; settings: oral 10 mg/kg, 5 times per week, 19 weeks, vehicle = 60.7%
Experimental: as §1

Row | Compound | object recognition ability (Recognition index, RI) (TauP301L-BiFC Tg mice [1]) | pS199 tau phosphorylation immunoblot (tau) [%] | pS396 tau phosphorylation immunoblot (tau) [%] | bioavailability ([2]; IV 2 mg/kg, PO 10 mg/kg) [%] | AUC ([2]; IV, 2 mg/kg) [ng·h/mL] | Cmax ([2]; IV, 2 mg/kg) [ng/mL] | clearance ([2]; IV, 2 mg/kg) [mL/min/kg] | half-life ([2]; IV, 2 mg/kg) [min] | AUC ([2]; PO, 10 mg/kg) [ng·h/mL] | Cmax ([2]; PO, 10 mg/kg) [ng/mL] | Tmax ([2]; PO, 10 mg/kg) [min] | half-life ([2]; PO, 10 mg/kg) [min] | Average number of times feet went outside the rod (n) (TauP301L-BiFC Tg mice [3]) | spontaneous alternation ratio (Alteration ratio (%)) (TauP301L-BiFC Tg mice [4]) [%] | also measured
1 | CC1COCCN1c1nc2ccc(NN=C(C#N)C#N)cc2o1 (centres unmarked) [Compound 16, (2-(3-methylmorpholino)benzo[d]oxazol-6-yl)carbonohydrazonoyl dicyanide] | 0.58 | 24 | 40 | 114 | 4090 | 4090 | 8.33 | 30.6 | 23300 | 11100 | 40.2 | 112 | 0.8 | 76.4 | –
2 | Cn1c(N2CCOCC2)nc2cc(NN=C(C#N)C#N)ccc21 [Compound 6, (1-methyl-2-morpholino-1H-benzo[d]imidazol-5-yl)carbonohydrazonoyl dicyanide] | 0.66 | 48 | 60 | 42 | 1700 | 9870 | 19.5 | 34.8 | 3570 | 4880 | 15 | 53.4 | 1.1 | 71.1 | –
3 | N#CC(C#N)=NNc1ccc2nc(N3C4CCC3COC4)oc2c1 [Compound 20, (2-(3-oxa-8-azabicyclo[3.2.1]octan-8-yl)benzo[d]oxazol-6-yl)carbonohydrazonoyl dicyanide] | 0.59 | 60 | 71 | – | – | – | – | – | – | – | – | – | 0.7 | 70.8 | bioavailability ([2]; IV 1 mg/kg, PO 15 mg/kg): 114%; AUC ([2]; IV, 1 mg/kg): 130 ng·h/mL; clearance ([2]; IV, 1 mg/kg): 132 mL/min/kg; half-life ([2]; IV, 1 mg/kg): 12 min; AUC ([2]; PO, 15 mg/kg): 2210 ng·h/mL; Cmax ([2]; PO, 15 mg/kg): 2050 ng/mL; Tmax ([2]; PO, 15 mg/kg): 24 min; half-life ([2]; PO, 15 mg/kg): 96 min
